Experimental findings from PMC12276312 (Nature Communications, 2025) are described below.

In data set [1] the target is T1, MxaF/MxaJ complex (Methylorubrum extorquens, UniProt P16027).
T1 sequence (P16027 28-626): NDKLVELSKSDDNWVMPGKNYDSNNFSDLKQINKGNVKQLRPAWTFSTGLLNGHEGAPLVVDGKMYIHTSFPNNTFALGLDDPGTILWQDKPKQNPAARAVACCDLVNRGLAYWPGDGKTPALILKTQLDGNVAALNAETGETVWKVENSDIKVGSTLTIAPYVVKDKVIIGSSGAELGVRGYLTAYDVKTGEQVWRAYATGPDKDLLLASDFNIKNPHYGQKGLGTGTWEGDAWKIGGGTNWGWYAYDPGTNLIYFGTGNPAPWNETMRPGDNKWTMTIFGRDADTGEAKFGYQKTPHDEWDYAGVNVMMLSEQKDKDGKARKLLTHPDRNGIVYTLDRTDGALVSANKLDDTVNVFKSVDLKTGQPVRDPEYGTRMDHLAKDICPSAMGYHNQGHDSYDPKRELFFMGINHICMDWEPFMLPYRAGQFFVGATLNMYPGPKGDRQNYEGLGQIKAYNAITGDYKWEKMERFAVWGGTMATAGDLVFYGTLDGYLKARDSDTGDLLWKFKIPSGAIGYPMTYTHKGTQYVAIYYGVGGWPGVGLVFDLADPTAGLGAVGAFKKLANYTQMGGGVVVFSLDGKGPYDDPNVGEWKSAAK
T1 sequence (P16028 26-300 partner): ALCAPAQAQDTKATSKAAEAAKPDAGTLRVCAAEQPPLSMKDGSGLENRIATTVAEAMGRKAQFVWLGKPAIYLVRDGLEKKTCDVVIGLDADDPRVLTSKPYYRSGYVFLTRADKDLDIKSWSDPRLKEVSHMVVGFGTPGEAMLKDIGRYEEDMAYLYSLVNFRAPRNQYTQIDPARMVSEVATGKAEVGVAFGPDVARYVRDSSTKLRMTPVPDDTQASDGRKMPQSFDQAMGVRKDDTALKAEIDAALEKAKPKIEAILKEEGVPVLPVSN
As to the kind of experiment: isothermal titration calorimetry. In kind it is binding.

Data set [2] deals with the molecule itself. The data set is described as follows: cryo-EM structure.

For `O=C(O)c1cc(C(=O)O)c2c(n1)C(=O)C(=O)c1cc(C(=O)O)[nH]c1-2` [PQQ], the Kd in data set [1] is about 77 nM.

B1: MxaF, untagged, co-expressed with MxaJ-His6 for cryo-EM (enzyme, Methylobacterium extorquens AM1, UniProt P16027 28-626, looked up)
chain: NDKLVELSKSDDNWVMPGKNYDSNNFSDLKQINKGNVKQLRPAWTFSTGLLNGHEGAPLVVDGKMYIHTSFPNNTFALGLDDPGTILWQDKPKQNPAARAVACCDLVNRGLAYWPGDGKTPALILKTQLDGNVAALNAETGETVWKVENSDIKVGSTLTIAPYVVKDKVIIGSSGAELGVRGYLTAYDVKTGEQVWRAYATGPDKDLLLASDFNIKNPHYGQKGLGTGTWEGDAWKIGGGTNWGWYAYDPGTNLIYFGTGNPAPWNETMRPGDNKWTMTIFGRDADTGEAKFGYQKTPHDEWDYAGVNVMMLSEQKDKDGKARKLLTHPDRNGIVYTLDRTDGALVSANKLDDTVNVFKSVDLKTGQPVRDPEYGTRMDHLAKDICPSAMGYHNQGHDSYDPKRELFFMGINHICMDWEPFMLPYRAGQFFVGATLNMYPGPKGDRQNYEGLGQIKAYNAITGDYKWEKMERFAVWGGTMATAGDLVFYGTLDGYLKARDSDTGDLLWKFKIPSGAIGYPMTYTHKGTQYVAIYYGVGGWPGVGLVFDLADPTAGLGAVGAFKKLANYTQMGGGVVVFSLDGKGPYDDPNVGEWKSAAK
On to B1, for which the “stoichiometry N” value in data set [2] was determined as 2.
